Data as given in patent US20170273948A1, “USE OF SIGMA RECEPTOR LIGANDS IN OSTEOARTHRITIS” (LABORATORIOS DEL DR ESTEVE S.A., priority 2014, published 2017).
Structures can show the parent of a compound that is named as a salt.

Key:
[1] = system: osteoarthritic-induced allodynia (MIA-induced osteoarthritis); test: MIA-induced osteoarthritis in rats: mechanical (tactile) allodynia, paw withdrawal threshold to von Frey filaments; format: in vivo, rat; settings: for progressive amelioration of the basal pain (PRE) found before daily treatments: Example A, three weeks i.p. b.i.d.; for progressive amelioration of the basal pain (PRE) found before daily treatments / analgesia (analgesic effect, POST) / analgesic effect (POST): example 1 60 mg/kg, Tramadol 20 mg/kg; for analgesia (analgesic effect, POST): day 1, single treatment, i.p.; for analgesia (analgesic effect, POST) / analgesic effect (POST): 30 min after treatment; for pain after treatment discontinuation (wash out): versus initial situation; for analgesic effect (POST): day 22, after three weeks of treatment i.p. b.i.d.
Method: Male Sprague-Dawley rats (Harlan, San Pietro Nastisone, Udine, Italia), weighing 50-75 g on arrival at the laboratory, were used. Animals were allowed to acclimate for one week in groups of five per cage in a room with constant temperature (21±1° C.) and relative humidity (60%), and free access to food and water ad libitum. Automatic light-on and -off allowed alternate light-dark cycles of 12 h:12 h, with light-on at 7:00 a.m. Procedures were approved by the Committee on Animal Research Ethics of ESTEVE and conformed to the guidelines of the IASP (Zimmermann, 1983). In particular, the duration of the experiments was kept as short as possible and the number of rats used was minimized.
Osteoarthritis in rats was induced by intraarticular (i.a.) injection of monosodium iodoacetate (MIA) in the right knee joint, essentially as described by Dunham et al. (1993). After one week of acclimation, rats were briefly anesthetized with isoflurane (5% in 02 at 600 cc/min; IsoFlo®, Veterinaria ESTEVE, MI, Italy) until lack of response to a toe pinch. Surgical area was swabbed with chlorohexidine and alcohol, then a single injection of MIA (50 μl of a 40 mg/ml solution in 0.9% saline, i.e. equal to 2 mg/injection) was delivered using a 28-gauge needle inserted into the joint space of the knee through the intra-patellar ligament, by a gentle flexion of the knee. Sham animals received, in parallel, an equal volume of 0.9% sterile saline.
The MIA dose to obtain a prolonged, marked decrease in mechanical thresholds to von Frey filaments pressure was selected on the basis of a dose-response experiment (not shown). After recovery, animals were returned to their home cage.
Rats […] to the test conditions beforehand were assigned into wire mesh bottom cylinders (transparent metacrylate, 300 mm high×200 mm diameter) and allowed to acclimatize prior the start of the experiment. Tactile allodynia was assessed by determination of the paw withdrawal threshold (PWT) to von Frey filaments stimulation, starting 1 to 15 grams, on the plantar surface of the hind paw. Each filament was applied 3 s until a withdrawal response occurred. A single response indicated a positive response. PWTs were assessed in both the inflamed (ipsilateral) and non-inflamed (contralateral) hind paw and expressed as grams. Control thresholds in the contralateral paw were established in a similar fashion. Nociceptive thresholds were measured prior to MIA injection (Day 0) then after 2 weeks (Day 14) in order to assess allodynia. Only rats with a significant decrease in the minimal pressure (threshold) to trigger ipsilateral versus contralateral hindpaw withdrawal were included in the pharmacological groups; non-responders (noninjured animals) were considered an exclusion criteria. Each animal was used in only one experiment, after which it was sacrificed by CO2.
OA was induced by MIA injection at day −14 in the intra-patellar ligament of the right hindpaw. Sham animals received, in parallel, 50 μl of sterile saline solution. Two weeks later, allodynic rats were characterized by a marked decrease in the minimal pressure (threshold) to trigger withdrawal of the ipsilateral hindpaw (vs. the contralateral hindpaw) when stimulated by using von Frey monofilaments. From day 1 rats received chronic treatment (i.p, b.i.d.) for three weeks (until day 22) with Example 1 or Tramadol for three weeks, and treatment was then discontinued and mechanical allodynia evaluated after 2 days and 7 days (days 24 and 29, respectively) (wash-out period) (FIG. 1).
Two weeks after MIA injection into the knee, rats suffering from mechanical allodynia received a chronic treatment (3 weeks i.p, b.i.d.) with Example 1 (60 mg/kg, FIG. 2A) or Tramadol (20 mg/kg, FIG. 2B). […]

[2] = system: osteoarthritic-induced allodynia (MIA-induced osteoarthritis); test: as above; format: in vivo, rat; settings: for progressive amelioration of the basal pain (PRE) found before daily treatments: Example B, i.p. b.i.d., oxycodone 2.5 mg/kg; for progressive amelioration of the basal pain (PRE) found before daily treatments / analgesia (POST): Ex.3 40 mg/kg; for analgesia (POST): day 1, single treatment, i.p., 30 min after treatment, Oxycodone 2.5 mg/kg; for analgesic effect (POST): day 29, repeated daily treatments i.p. b.i.d., Ex. 3 40 mg/kg after four weeks, Oxycodone 2.5 mg/kg after three weeks
sigma (σ-2) site = sigma (σ-2) site (Homo sapiens, UniProt Q5BJF2); settings: cited from earlier work
sigma 1 (σ-1) site = sigma 1 (σ-1) site (Homo sapiens, UniProt Q99720); settings: cited from earlier work
[3] = listed as example 1, hydrochloride

Chain of sigma (σ-2) site (Q5BJF2 whole entry): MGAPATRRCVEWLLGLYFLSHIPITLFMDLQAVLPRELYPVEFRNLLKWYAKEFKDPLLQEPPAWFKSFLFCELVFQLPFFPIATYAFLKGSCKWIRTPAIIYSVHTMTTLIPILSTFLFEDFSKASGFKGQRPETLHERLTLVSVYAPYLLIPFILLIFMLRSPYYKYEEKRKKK
Chain of sigma 1 (σ-1) site (Q99720 whole entry): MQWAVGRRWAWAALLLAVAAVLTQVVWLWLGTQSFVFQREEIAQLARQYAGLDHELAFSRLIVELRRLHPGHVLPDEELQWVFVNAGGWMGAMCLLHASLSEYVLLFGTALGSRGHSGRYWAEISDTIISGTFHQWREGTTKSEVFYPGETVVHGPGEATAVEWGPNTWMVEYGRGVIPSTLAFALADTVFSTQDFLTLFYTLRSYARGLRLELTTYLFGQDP

Cc1cc(OCCN2CCOCC2)nn1-c1ccc2ccccc2c1 [Example 1, 4-{2-[5-Methyl-1-(naphthalen-2-yl)-1H-pyrazol-3-yloxy]ethyl}morpholine hydrochloride]
progressive amelioration of the basal pain (PRE) found before daily treatments [1]: progressively ameliorates the basal pain | analgesia (analgesic effect, POST) ([1]; hydrochloride): ~40% | analgesia (analgesic effect, POST) [1, 3]: around 40% | pain after treatment discontinuation (wash out) ([1]; day 2 after discontinuation (day 24)): still reduced | pain after treatment discontinuation (wash out) ([1]; day 7 after discontinuation (day 29)): went back to the initial situation | analgesic effect (POST) ([1]; hydrochloride): 90% | analgesic effect (POST) [1, 3]: around 90% | reduction of basal pain (PRE) found before daily treatments ([1]; day 22, before first morning administration, example 1 60 mg/kg i.p. b.i.d.): 80% | analgesic tolerance (loss of analgesic efficacy following repeated treatment) ([1]; repeated treatment i.p. b.i.d. for three weeks): does not induce analgesic tolerance

CC(=O)N1CCN(CCOCc2ccn(-c3ccc(F)c(F)c3)n2)CC1 [Example 3, 1-(4-(2-((1-(3,4-difluorophenyl)-1H-pyrazol-3-yl)methoxy)ethyl)piperazin-1-yl)ethanone hydrochloride]
progressive amelioration of the basal pain (PRE) found before daily treatments [2]: progressively ameliorates the basal pain | analgesia (POST) [2]: around 5% | analgesic effect (POST) [2]: around 60% | reduction of basal pain (PRE) found before daily treatments ([2]; day 30, Ex.3 40 mg/kg i.p. b.i.d.): 65%

COc1ccc2c3c1O[C@H]1C(=O)CC[C@@]4(O)[C@@H](C2)N(C)CC[C@]314 [Oxycodone, reference compound]
progressive amelioration of the basal pain (PRE) found before daily treatments [2]: not | analgesia (POST) [2]: ~65% | analgesic effect (POST) [2]: ~15%

COc1cccc(C2(O)CCCCC2CN(C)C)c1 (stereo not drawn) [Tramadol, reference compound]
progressive amelioration of the basal pain (PRE) found before daily treatments [1]: not | analgesia (analgesic effect, POST) [1]: around 90% | analgesic effect (POST) [1]: ~10%

SKF 10047
affinity for the sigma (σ-2) site (sigma (σ-2) site): micromolar | affinity for the sigma 1 (σ-1) site (sigma 1 (σ-1) site): nanomolar
